This passage reports Kd results from BindingDB's records for doi:10.1021/jm9703911 (Allergan, 1997).

In test [1] the target is T1, Retinoic acid receptor alpha (Homo sapiens, UniProt P10276).
T1 sequence (P10276 whole entry): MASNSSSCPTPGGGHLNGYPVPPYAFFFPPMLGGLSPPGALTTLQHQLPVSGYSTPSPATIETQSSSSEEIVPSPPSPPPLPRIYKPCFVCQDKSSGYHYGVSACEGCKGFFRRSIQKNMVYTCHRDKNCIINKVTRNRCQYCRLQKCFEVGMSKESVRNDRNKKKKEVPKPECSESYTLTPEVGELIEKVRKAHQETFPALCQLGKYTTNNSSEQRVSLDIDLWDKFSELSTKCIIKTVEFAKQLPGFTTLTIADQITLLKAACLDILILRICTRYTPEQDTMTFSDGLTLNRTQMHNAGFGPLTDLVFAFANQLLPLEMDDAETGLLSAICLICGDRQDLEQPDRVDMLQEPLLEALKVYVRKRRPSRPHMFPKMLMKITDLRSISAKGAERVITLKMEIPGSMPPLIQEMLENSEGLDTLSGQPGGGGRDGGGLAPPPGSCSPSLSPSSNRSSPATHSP
Put plainly: Inhibition of [3H]ATRA binding to baculovirus expressed RAR alpha receptor.

For test [2], the target named is T2, Retinoic acid receptor beta (Homo sapiens, UniProt P10826).
T2 sequence (P10826 whole entry): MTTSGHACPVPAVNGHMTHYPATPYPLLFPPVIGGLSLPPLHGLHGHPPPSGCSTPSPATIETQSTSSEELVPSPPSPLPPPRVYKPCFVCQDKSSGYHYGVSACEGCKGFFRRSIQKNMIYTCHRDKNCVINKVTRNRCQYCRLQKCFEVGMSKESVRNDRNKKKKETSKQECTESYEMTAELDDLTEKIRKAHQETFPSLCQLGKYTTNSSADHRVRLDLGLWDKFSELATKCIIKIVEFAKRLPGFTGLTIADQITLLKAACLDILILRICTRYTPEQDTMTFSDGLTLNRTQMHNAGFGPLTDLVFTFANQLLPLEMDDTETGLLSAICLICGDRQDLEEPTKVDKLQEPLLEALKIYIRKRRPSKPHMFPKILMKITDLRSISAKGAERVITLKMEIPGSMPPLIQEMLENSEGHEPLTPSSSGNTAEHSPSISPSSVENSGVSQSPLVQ
Put plainly: Inhibition of [3H]-ATRA binding to baculovirus expressed RAR beta receptor.

Test [3] concerns the target T3, Retinoic acid receptor gamma (Homo sapiens, UniProt P13631).
T3 sequence (P13631 whole entry): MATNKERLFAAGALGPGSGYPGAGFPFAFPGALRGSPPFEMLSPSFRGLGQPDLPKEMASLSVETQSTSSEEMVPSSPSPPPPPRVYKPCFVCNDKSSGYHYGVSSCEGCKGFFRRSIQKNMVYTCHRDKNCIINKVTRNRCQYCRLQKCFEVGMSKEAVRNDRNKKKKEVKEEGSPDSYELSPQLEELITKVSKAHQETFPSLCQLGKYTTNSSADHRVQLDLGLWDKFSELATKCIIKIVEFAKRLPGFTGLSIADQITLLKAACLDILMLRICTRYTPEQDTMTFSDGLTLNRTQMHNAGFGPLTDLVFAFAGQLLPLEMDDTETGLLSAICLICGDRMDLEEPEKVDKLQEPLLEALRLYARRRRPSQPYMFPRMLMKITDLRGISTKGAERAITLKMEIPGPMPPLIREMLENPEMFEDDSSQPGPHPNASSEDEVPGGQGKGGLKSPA
As to the kind of experiment: Inhibition of [3H]ATRA binding to baculovirus expressed RAR gamma receptor.

The Kd is the equilibrium constant for the complex coming apart.

In the case of `Cc1ccc(C2=CC(C)(C)Oc3c(Br)cc(C(=O)Nc4cc(F)c(C(=O)O)c(F)c4)cc32)cc1`, the Kd is 1.5 nM in test [1], 898 nM in test [2] and 10600 nM in test [3].
For `Cc1ccc(C2=CCC(C)(C)c3ccc(C(=O)Nc4cc(F)c(C(=O)O)c(F)c4)cc32)cc1`, in that order: 32 nM, 2260 nM and more than 30000 nM.
In the same order, the values of `Cc1ccc(C2=CCC(C)(C)c3ccc(C(=O)Nc4ccc(C(=O)O)cc4)cc32)cc1` are 27 nM, 1020 nM and 3120 nM.
For `Cc1ccc(C2=CC(C)(C)Oc3c(Br)cc(C(=O)Nc4ccc(C(=O)O)c(F)c4)cc32)cc1`, in that order: 2.8 nM, 320 nM and 7260 nM.
In the case of `Cc1ccc(C2=CCC(C)(C)c3ccc(C(=O)Nc4ccc(C(=O)O)c(F)c4)cc32)cc1`, the Kd in test [1] turned out to be 5.7 nM; in test [2], 622 nM; in test [3] it was 863 nM.
